# Results as given in patent US20080312147A1, “Compositions and Methods for the Regulation of Hair Growth” (NUGENE INC., priority 2007, published 2008).
# Tested on: 5-α-reductase
# Assay: interruption of 5-α-reductase activity by copper containing peptides
# Format: biochemical
# Conditions: stated in words only; said to act by preventing binding of testosterone to the active site; no method or data given
row,Substance,interruption of the activity of 5-α-reductase
1,Cu(II)-His-Val-His,interrupt 5-α-reductase
2,His-Ala-His-Cu(II),interrupt 5-α-reductase
3,Gly-His-Lys-Cu(II),interrupt the activity of 5-α-reductase
